Measured values published in patent US9580390B2, “Indazole compounds as kinase inhibitors and method of treating cancer with same” (University Health Network, priority 2011, dated 2017).

Tests used:
Breast cancer cells = experiment: Cancer cell line growth inhibition (SRB assay); format: cell-based; settings: Homo sapiens; MDA-MB-468; read-out: Cancer Cell Line GI50 Range MDA-MB-468
human PLK4 = molecular target: T1, human PLK4 (Homo sapiens, UniProt O00444); experiment: PLK4 inhibition assay (indirect ELISA); format: biochemical; settings: 15 μM ATP
T1 construct: amino terminal GST fusion of residues 1-391 of human PLK4; made in house; host or cells: E. coli
T1 sequence (O00444 1-391): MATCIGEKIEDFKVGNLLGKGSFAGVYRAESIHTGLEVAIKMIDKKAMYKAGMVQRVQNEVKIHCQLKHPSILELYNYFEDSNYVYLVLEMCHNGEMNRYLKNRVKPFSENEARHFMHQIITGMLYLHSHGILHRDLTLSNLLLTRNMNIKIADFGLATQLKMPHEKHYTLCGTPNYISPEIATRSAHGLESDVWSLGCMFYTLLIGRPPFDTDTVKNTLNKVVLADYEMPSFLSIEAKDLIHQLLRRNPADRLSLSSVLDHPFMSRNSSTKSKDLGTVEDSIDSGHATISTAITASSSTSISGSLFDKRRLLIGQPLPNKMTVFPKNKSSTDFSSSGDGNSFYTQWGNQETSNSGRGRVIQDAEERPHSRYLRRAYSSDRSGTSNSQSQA
Summary of the method: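 Dephosphorylated GST-PLK4 (residues 1-391, E. coli; 4 nM) was preincubated 15 min with compound, then reacted 30 min with 15 μM ATP in HEPES pH 7.4, MgCl2, Brij 35 on MBP-coated plates. Phospho-MBP was detected by antibody/HRP ELISA at 450 nm; IC50 from 10-point titration by 4-parameter logistic fit, or single 10 μM % inhibition.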

cKit (V560G) = molecular target: T2, cKit (V560G) (Homo sapiens, UniProt P10721, V560G); experiment: Panel of 270 human kinases (Millipore); format: biochemical
T2 construct: purchased Millipore Corporation
T2 sequence (P10721 26-976 V560G): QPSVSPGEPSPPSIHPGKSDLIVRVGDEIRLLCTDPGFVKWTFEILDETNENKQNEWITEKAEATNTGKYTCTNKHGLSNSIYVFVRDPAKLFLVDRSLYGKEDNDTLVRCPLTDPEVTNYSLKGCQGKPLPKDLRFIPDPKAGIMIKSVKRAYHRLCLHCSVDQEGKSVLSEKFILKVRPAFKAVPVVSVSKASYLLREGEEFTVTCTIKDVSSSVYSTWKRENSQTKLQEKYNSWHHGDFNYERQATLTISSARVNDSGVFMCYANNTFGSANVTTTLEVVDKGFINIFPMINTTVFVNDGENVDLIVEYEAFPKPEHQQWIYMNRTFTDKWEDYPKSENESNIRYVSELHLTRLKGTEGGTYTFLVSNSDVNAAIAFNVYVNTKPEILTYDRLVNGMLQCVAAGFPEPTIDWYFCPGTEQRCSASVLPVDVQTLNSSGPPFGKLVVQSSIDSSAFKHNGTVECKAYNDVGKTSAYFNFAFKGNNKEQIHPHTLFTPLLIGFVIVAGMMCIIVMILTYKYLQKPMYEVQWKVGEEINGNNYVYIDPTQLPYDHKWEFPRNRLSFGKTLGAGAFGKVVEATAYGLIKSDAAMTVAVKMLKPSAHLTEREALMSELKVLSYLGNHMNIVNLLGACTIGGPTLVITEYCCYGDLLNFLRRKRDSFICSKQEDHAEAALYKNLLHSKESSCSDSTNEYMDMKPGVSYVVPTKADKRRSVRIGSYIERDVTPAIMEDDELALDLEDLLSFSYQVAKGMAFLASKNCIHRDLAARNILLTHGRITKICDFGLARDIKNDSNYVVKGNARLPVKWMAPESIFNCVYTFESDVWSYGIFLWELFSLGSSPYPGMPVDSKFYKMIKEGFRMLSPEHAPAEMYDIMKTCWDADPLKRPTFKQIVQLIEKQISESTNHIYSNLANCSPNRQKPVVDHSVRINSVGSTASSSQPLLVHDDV
Procedure: (§1) The inhibitory activity of selected compounds of the invention (A335, A405, A410, A261, A300 and A363) was evaluated against a panel of 270 different human kinase enzymes by Millipore Corporation. The % Inhibition was determined by the formula: % Inhibition=100×(1−(experimental value−background value)/(high activity control−background value)).

Aurora-B = molecular target: T3, Aurora-B (Homo sapiens, UniProt Q96GD4); experiment: Panel of 270 human kinases (Millipore); format: biochemical
T3 construct: purchased Millipore Corporation
T3 sequence (Q96GD4 whole entry): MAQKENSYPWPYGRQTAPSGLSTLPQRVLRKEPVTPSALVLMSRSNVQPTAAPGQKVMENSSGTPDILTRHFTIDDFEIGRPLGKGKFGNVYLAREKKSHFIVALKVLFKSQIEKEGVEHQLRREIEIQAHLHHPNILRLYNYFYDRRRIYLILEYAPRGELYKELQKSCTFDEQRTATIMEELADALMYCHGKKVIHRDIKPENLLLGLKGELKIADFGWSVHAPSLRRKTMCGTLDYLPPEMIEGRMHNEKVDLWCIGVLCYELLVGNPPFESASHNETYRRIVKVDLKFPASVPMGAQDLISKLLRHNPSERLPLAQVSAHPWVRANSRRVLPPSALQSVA
Procedure: as §1

human TTK = molecular target: T4, human TTK (Homo sapiens, UniProt P33981); experiment: TTK inhibition assay (indirect ELISA); format: biochemical; settings: read-out: TTK IC50 Range
T4 construct: amino terminal GST fusion of full length human TTK; purchased Invitrogen
T4 sequence (P33981 1-857): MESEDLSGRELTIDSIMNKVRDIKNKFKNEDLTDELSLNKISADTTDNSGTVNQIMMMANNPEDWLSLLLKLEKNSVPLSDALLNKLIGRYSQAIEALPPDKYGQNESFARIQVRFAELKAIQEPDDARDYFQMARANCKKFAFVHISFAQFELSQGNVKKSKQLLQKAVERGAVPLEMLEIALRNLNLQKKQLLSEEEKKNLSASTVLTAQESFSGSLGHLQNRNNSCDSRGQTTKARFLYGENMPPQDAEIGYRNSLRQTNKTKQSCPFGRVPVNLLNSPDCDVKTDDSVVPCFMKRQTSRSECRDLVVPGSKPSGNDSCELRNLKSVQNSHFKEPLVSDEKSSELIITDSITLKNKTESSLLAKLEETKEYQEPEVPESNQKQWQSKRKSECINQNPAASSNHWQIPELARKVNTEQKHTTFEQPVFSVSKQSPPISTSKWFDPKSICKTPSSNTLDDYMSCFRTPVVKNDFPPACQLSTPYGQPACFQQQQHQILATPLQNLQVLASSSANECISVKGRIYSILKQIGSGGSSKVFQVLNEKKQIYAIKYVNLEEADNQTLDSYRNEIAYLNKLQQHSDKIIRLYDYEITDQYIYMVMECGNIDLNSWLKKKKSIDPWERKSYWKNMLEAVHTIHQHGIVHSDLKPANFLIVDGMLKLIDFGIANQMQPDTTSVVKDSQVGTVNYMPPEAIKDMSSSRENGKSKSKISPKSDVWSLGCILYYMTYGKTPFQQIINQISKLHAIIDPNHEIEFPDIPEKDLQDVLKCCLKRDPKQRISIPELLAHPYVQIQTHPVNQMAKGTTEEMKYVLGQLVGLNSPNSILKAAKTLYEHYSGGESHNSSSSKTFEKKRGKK

[1] = test system: colon cancer cells (HCT116); experiment: Cancer cell line growth inhibition (SRB assay); format: cell-based; settings: Homo sapiens, HCT-116; read-out: Cancer Cell Line GI50 Range HCT116
TICs (Colon 12) = experiment: Colon tumor-initiating cell growth inhibition (Alamar Blue); format: cell-based; settings: 216 h; Colon 12 TICs, 9 days; read-out: Tumor Initiating Cell GI50 Range Colon 12
Description: Materials and Methods: Non-tissue or tissue cultured treated T-75 flask and 96-well plates were purchased from VWR. Vitamin B-27 supplement, MEM NEAA (minimum essential medium non essential amino acids), sodium pyruvate, L-glutamine, N2 supplement, penicillin-streptomycin and fungizone/amphotericin B were obtained from Invitrogen. Lipid mixture, heparin and EGF were purchased from Sigma; bFGF from BD Biosciences. Tumor Initiating Cells (TICs) from colon were routinely maintained using non-tissue cultured treated T-75 flasks in DMEM:F12 medium containing 0.2×B-27 supplement, 4 ug/ml heparin, 1×MEM NEAA, 1× sodium pyruvate, 1 mM glutamine, 10 pg/ul bFGF, 20 pg/ul EGF, 1×N2 supplement, lipid mixture, penicillin-streptomycin and fungizone/amphotericin B. Ovarian TICs were routinely maintained using tissue cultured treated T-75 flasks in DMEM:F12 medium containing 1×B-27 supplement, 4 ug/ml heparin, 20 pg/ul bFGF, 20 pg/ul EGF and penicillin-streptomycin.
Assay Protocol: Compounds described herein were dissolved in DMSO and further diluted in cell culture medium for GI50 determination. Colon TICs were trypsinized and seeded into non-tissue cultured treated 96-well plates with 4,000 cells/well. After 24 h, compound was added into the cell culture at different concentrations, and the final concentration of DMSO was adjusted to 0.1%. Cells were then cultured at 37° C. for 9 days. Ovarian TICs were trypsinized and seeded into tissue cultured treated 96-well plates with 1,000 cells/well. After 24 h, compound was added into the cell culture at different concentrations, and the final concentration of DMSO was adjusted to 0.1%. Cells were then cultured at 37° C. for 6 days. Cell viability was assessed by Alamar Blue assay: 10 ul of Alamar Blue was added into each well. After 4 hours incubation at 37° C., fluorescence was recorded at excitation 544 and emission 590. GI50 (Growth inhibition) was calculated using GraphPad Prism 4.0 software.

[2] = test system: ovarian cancer cells (PA-1); experiment: Cancer cell line growth inhibition (SRB assay); format: cell-based; settings: Homo sapiens, PA-1; read-out: Cancer Cell Line GI50 Range PA-1

## CC(C)C[C@@H](NC(=O)c1ccc2[nH]nc(-c3ccc(N4CCN(C5COC5)CC4)cc3)c2c1)c1ccccc1Cl [Example A300, (R)-N-(1-(2-chlorophenyl)-3-methylbutyl)-3-(4-(4-(oxetan-3-yl)piperazin-1-yl)phenyl)-1H-indazole-5-carboxamide]
Breast cancer cells
  GI50: < 100 nM
Human PLK4
  IC50: < 50 nM
cKit (V560G)
  inhibition at 1 µM: 76%
Aurora-B
  inhibition at 1 µM: 69%
Human TTK
  IC50: < 100 nM
[1]
  GI50: < 100 nM
TICs (Colon 12)
  GI50: < 100 nM
[2]
  GI50: < 100 nM

## CC(C)[C@H](NC(=O)c1ccc2[nH]nc(-c3ccc(OC4CC5CCC(C4)N5C4COC4)cc3)c2c1)c1ccccc1Cl (stereo partly shown) [Example A335]
Breast cancer cells
  GI50: 100 to 500 nM
Human PLK4
  IC50: < 50 nM
cKit (V560G)
  inhibition at 1 µM: 66%
Aurora-B
  inhibition at 1 µM: 87%
Human TTK
  IC50: < 100 nM
[1]
  GI50: < 100 nM
TICs (Colon 12)
  GI50: < 100 nM
[2]
  GI50: < 100 nM
